Source: PMC9911797, “Novel TLR7/8 agonists promote activation of HIV-1 latent reservoirs and human T and NK cells” (Frontiers in Microbiology, 2023)

Tests used:
[1] = test system: PBMCs from HIV-1 well-suppressed patients; test: Latent HIV-1 activation in PBMCs of well-suppressed patients (HIV-1 RNA copies in supernatant, RT-qPCR); format: cell-based, human
Source text: To study the potential of novel TLR7/8 in activating latent HIV-1 reservoir, TLR7/8 dual agonists D018 and C142 and TLR8-specific agonist B-130a were mixed with PBMCs from six well-suppressed patients whose viral load in the plasma was less than 50 copies/ml, and CD4 counts were more than […] for more than 6 years.
TLR7/8 agonists activated PBMCs from seven well-suppressed patients with the addition of anti-TNF-α monoclonal antibody or IgG1-control monoclonal antibody, respectively. D018, B-130a, and the positive control PMA + ION increased the levels of HIV-1 RNA copies in the supernatant and the concentration of TNF-α concomitantly.
To measure the HIV viral load, viral RNA from supernatants was extracted by MagaBio Plus Viral DNA / RNA Purification Kit (BIOER). The reverse-transcription and analysis of RNA copies were performed using the HIV-1 Real-time PCR detection kit (BIOER).

[2] = test system: J-LAT cells co-cultured with MDDCs; test: J-LAT and MDDC co-culture assay (GFP+ cells and TNF-α); settings: 1 μM, 48 h
PBMCs = test: Inflammatory cytokine release from PBMCs (Legend-plex); format: cell-based, human; settings: PBMC culture supernatant 48 h after stimulation
Description: Then, a total of 13 human inflammatory cytokines and chemokines (IL-1β, IFN-α2, IFN-γ, TNF-α, CCL2, IL-6, CXCL8, IL-10, IL-12p70, IL-17A, IL-18, IL-23, and IL-33) were measured in the culture supernatant 48 h after stimulation and compared with two healthy donors. Only 8 out of 13 became detectable and largely fell into the proinflammatory cytokines (IL-1β, IL-6, IL-18, IL-23, and TNF-α), Th1-and Th2-type cytokines (IL-10 and IFN-γ), and type I (IFN-α2) and type II (IFN-γ) interferons (Figures 2B–I).
The supernatants from PBMCs culture were collected and stored at-20°C until analysis. For the Multi-cytokines assay, the Legend-plex Human Inflammation Panel 1 kit (Biolegend) was used according to the manual. Thirteen human inflammatory cytokines/chemokines were measured, including IL-1β, IFN-α2, IFN-γ, TNF-α, MCP-1 (CCL2), IL-6, IL-8 (CXCL8), IL-10, IL-12p70, IL-17A, IL-18, IL-23, and IL-33.

NF-κB p65 in U1 cells = test: Nuclear phospho-p65-S536 in U1 cells (western blot); settings: 1 μM, 30 min, 37°C
Description: For measuring NF-kB p65 and phosphor-p65 S536, 5 × 10^6 U1 cells were stimulated by 1 μM TLR7/8 agonists D018 (7/8), B-130a (8), GS9620 (7), and DMSO (negative control) for 30 min. Nuclear proteins were extracted by NE-PER Nuclear and Cytoplasmic Extraction Reagents (Pierce) and measured the concentration using BCA protein measure kit (Thermo).
Equal amounts of extracts were loaded on the 10% polyacrylamide gel SDS-PAGE. Then proteins were electro-transferred to nitrocellulose membranes 300 mA for 90 min and incubated with blocking buffer (5% nonfat dry milk and 0.1% Tween 20 in TBS) for 1 h at room temperature. NF-kB p65, phosphorylate p65-s529, and PCNA (as the control of nuclear protein) were separately detected by NF-κB p65 Mouse mAb (CST), Phospho-NF-κB p65 Ser536 Rabbit mAb (CST) and PCNA Rabbit mAb (CST) in blocking buffer overnight at 4°C. After washing 5 times in TBST (1 × TBS + 0.1% Tween), the membranes were incubated with anti-mouse IgG (H + L) HRP (Promega) and anti-rabbit IgG (H + L) HRP (Promega) for 1 h at room temperature. After washing 5 times in TBST, membranes were incubated with ECL detection reagents (Bio-red) and then developed in Bio-red imager.

[3] = test system: PBMCs from healthy donors; test: Surface activation markers on immune cells of healthy donor PBMCs (flow cytometry); format: cell-based, human; settings: 1 μM, 24 h
Source text: TLR family is essential in connecting innate immunity with acquired immunity in fighting against infection. It was then studied whether the identified TLR7/8 agonists could activate cell populations within PBMC, thereby potentiating their effector functions. […] The representative diagram of the gating strategy for each immune cell is shown in Supplementary Figure S5. All tested TLR7/8 agonists activated CD69 and NKG2D expression on CD56^bright and CD56^dim NK cells (Figures 6A–D), as well as CD69 and CD25 expression on CD4+ and CD8+ T cells (Figures 6E–H).
Then cells were collected and washed in FACS buffer (PBS + 2%FBS). Cells were incubated by fluorescence antibodies at 4°C for 30 min. For T cells, CD3-PE-Cy7 (Biolegend), CD4-PE (BD), CD8-FITC (Biolegend), CD25-BV421 (Biolegend), CD69-BV510 (Biolegend). For NK cells, CD16-PE (Biolegend), CD56-APC (Biolegend), CD69-BV510 (Biolegend), NKG2D-BV421 (Biolegend). For monocytes, CD14-PE-Cy7 (Invitrogen), CD40-APC-Cy7 (Biolegend) HLR-DR-BV510 (Biolegend). For dendritic cells, anti-human lineage cocktail-APC (Biolegend), CD11c-PE-Cy7 (Biolegend), CD80-BV510 (Biolegend), CD86-AF488 (Biolegend).

**Q.** With `CCCCNc1nc(N)nc2ccc(Cc3ccc(CN(C)C)cc3)nc12` [D018] as the molecule, how does the “HIV-1 RNA copies in the supernatant and TNF-α concentration” value ([1]; PBMCs from seven well-suppressed patients, IgG1-control antibody vs anti-TNF-α) read?
**A.** The value was “increased”.

**Q.** And the “HIV-1 RNA copies in the supernatant” value ([1]; patient PBMCs (n = 6), 96 h at 37°C)?
**A.** The value was “most potent”.

**Q.** And the “GFP+ J-LAT cells and soluble TNF-α in MDDC co-culture” value [2]?
**A.** The value was “marked increase”.

**Q.** What about the “release of inflammatory cytokines” value (PBMCs) of the same molecule?
**A.** Its value is “either equivalent (IL-6, IL-10, IL-23, and IFN-γ) or higher (IL-1β, IL-18, and TNF-α) than the commercially available R848”.

**Q.** What about the “nuclear phos-p65-S536” value (NF-κB p65 in U1 cells) of the same molecule?
**A.** Its value is “significant increase”.

**Q.** And the “CD69/NKG2D on NK cells and CD69/CD25 on CD4+ and CD8+ T cells” value [3]?
**A.** Its value is “most potent”.
